Laboratory results from patent US11571435B2, “S1PR4-targeting composition for preventing or treating non-alcoholic steatohepatitis” (UNIVERSITY OF ULSAN FOUNDATION FOR INDUSTRY COOPERATION, priority 2017, dated 2023).

What was measured:
[1] = reported for FTY720; cited from earlier work
S1PR4-EGFP = assay: S1PR4 internalization and recycling in cell lines overexpressing S1PR4-EGFP (fluorescence microscopy); assay type: cell-based; conditions: S1P 100 nM, FTY720 100 nM, SLB736 1 μM, cycloheximide; for S1PR4 internalization: 30 minutes after treatment; for S1PR4 recycling to the cell membrane: 2 hours (washed after 30 minutes)
Procedure: Cell lines overexpressing S1PR4-EGFP were used to identify whether or not SLB736 and FTY720 actually internalize S1PR4 into cells and thereby act as functional antagonists.
Specifically, the cell lines overexpressing S1PR4-EGFP were incubated in a cover glass allowing for microscopic observation and were then treated with a vehicle (dimethyl sulfoxide […]), S1P (100 nM; agonist, positive control group), FTY720 (100 nM) and SLB736 (1 μM). 30 minutes and 2 hours after treatment with each material, the cell lines were fixed with a fixing solution and observed with a fluorescence microscope. At this time, the cells were cultured after treatment with a protein synthesis inhibitor (cycloheximide) in order to inhibit the synthesis of new receptors, were first observed with a fluorescence microscope 30 minutes after each material treatment, and were then washed. Then, the cells were further cultured for 1 hour 30 minutes and were secondarily observed, and cell images were obtained.

S1PR4 [2] = biological target: T1, S1PR4 (Homo sapiens, UniProt O95977); assay: agonistic activity of S1P receptors, GPCR activity measurement method of DiscoveRX Corp.; assay type: cell-based
T1 construct: purchased DiscoveRX Corp
T1 sequence (O95977 1-384): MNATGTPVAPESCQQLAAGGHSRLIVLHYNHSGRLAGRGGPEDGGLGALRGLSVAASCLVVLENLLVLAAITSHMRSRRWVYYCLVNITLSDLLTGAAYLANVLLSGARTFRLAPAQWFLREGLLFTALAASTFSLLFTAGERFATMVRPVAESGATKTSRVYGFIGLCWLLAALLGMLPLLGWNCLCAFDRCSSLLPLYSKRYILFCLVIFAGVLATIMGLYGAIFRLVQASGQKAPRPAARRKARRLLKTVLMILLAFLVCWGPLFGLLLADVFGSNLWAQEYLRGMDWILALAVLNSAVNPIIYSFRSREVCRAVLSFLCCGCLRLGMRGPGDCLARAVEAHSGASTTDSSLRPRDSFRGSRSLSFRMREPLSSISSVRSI

[3] = leukocytes and lymphocytes in whole blood after administration (lymphopenia); assay type: in vivo, mouse; conditions: mice, automated analyzer
Procedure: Therefore, when the SLB736 of the present invention was administered, changes of leukocytes and lymphocytes in the blood were measured to determine the possibility of side effects. On the day of autopsy, blood was collected from the posterior vein using a syringe and whole blood was refrigerated in an EDTA-2K CBC bottle. The leukocytes and lymphocytes in the whole blood were measured using an automated analyzer.

S1PR4 [4] = biological target: T2, S1PR4 (Mus musculus, UniProt Q9Z0L1); assay: S1PR4 expression in LPS-treated Raw cells; assay type: cell-based; conditions: substance then LPS, vs LPS only
T2 construct: endogenous in cells; host or cells: Raw cells (mouse macrophage line)
T2 sequence (Q9Z0L1 1-386): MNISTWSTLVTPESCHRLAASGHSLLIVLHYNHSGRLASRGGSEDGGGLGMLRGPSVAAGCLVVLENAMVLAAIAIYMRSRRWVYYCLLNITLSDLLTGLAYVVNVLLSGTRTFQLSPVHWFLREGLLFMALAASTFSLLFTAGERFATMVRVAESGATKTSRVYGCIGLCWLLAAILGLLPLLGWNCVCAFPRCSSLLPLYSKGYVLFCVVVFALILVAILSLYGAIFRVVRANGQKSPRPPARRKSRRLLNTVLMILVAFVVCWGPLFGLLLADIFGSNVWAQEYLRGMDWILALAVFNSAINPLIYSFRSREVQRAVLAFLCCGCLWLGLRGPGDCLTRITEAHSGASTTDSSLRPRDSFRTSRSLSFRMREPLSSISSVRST
Procedure: In addition, Raw cells, which are mouse macrophage lines, were treated with a FTY720 or SLB736 substance, and were then treated with LPS, and S1PR4 expression was then measured.

S1PR4 [5] = biological target: T2, S1PR4; assay: S1PR4 protein expression in liver tissue of MCDD-fed mice (Western blotting); assay type: in vivo; conditions: C57BL/6N mice, 1 mg/kg with MCDD for 6 weeks, vs MCDD alone
From the text: In order to determine whether or not SLB736, the compound of the present invention, acts as a functional antagonist of S1PR4, changes in S1PR4 protein expression were observed after administration of candidate substances to nonalcoholic steatohepatitis (NASH) model mice and macrophages thereof.
It is well known that the administration of a methionine choline-deficient diet (MCDD) to mice results in non-alcoholic steatohepatitis. The mice (C57BL/6N, Orient Bio, Inc., Korea) used in the experiments were divided into three groups, and MCDD alone, 1 mg/kg of MCDD and FTY720, and 1 mg/kg of MCDD and SLB736 were administered to each group for 6 weeks. Then, changes in the expression of S1PR4 protein in liver tissue of mice were measured through Western blotting.

[6] = test system: non-alcoholic steatohepatitis (NASH) caused by MCDD; assay: treatment of NASH in NASH-induced mice (MCDD for 4 weeks, then 4 weeks treatment); assay type: in vivo, mouse; conditions: 5 mg/kg/day for 4 weeks after 4 weeks MCDD, liver tissue
Procedure: A NASH-induced animal model obtained by administering MCDD to 8-week-old mice (C57BL6/N, Orient Bio Inc., Korea) for 4 weeks was used in order to identify the effect of the SLB736 compound on the treatment of non-alcoholic steatohepatitis (NASH). Specifically, the NASH-induced model mice were divided into two groups, the control group was further fed with MCDD for 4 weeks, the experimental group was fed with SLB736 at a dose of 5 mg/kg/day for 4 weeks in combination with MCDD, and liver tissue was collected from each mouse and observed with a microscope to determine the degree of steatosis, lobular inflammation and fibrosis.

[7] = test system: non-alcoholic steatohepatitis (NASH) caused by MCDD; assay: prevention of NASH onset in mice administered MCDD for 6 weeks; assay type: in vivo, mouse
From the text: In order to identify the effect of the SLB736 compound on the prevention of onset of non-alcoholic steatohepatitis (NASH), an animal model administered with MCDD for 6 weeks was used. Generally known characteristic microscopic findings of NASH include steatosis, ballooning degeneration of hepatocytes, lobular inflammation, perisinusoidal fibrosis and the like. In 2005, the NASH clinical research network (CRN) designed a detailed grading system for lesions corresponding to nonalcoholic steatohepatitis and thus proposed the nonalcoholic fatty liver disease activity score (NAS), which is widely used in various research due to the excellent reproducibility thereof. Accordingly, the present inventors have scored the grade of steatosis, location of steatosis, lobular inflammation and the extent of fibrosis, from the results of liver tissue observation of animal models, based on the CRN classification system. Based on this, the effect of SLB736, which is the target compound in the present invention, on the prevention or progression of non-alcoholic steatohepatitis caused by MCDD was evaluated. […] In order to determine this quantitatively, evaluation was conducted according to the NAS system of the CRN. […] In addition, the expression levels of TGF-β, TNF-α and MCP-1 were measured in order to identify the effects of the SLB736 compound on the expression of inflammatory markers and fibrosis markers in liver tissue. Specifically, RNA was extracted from liver tissue of the animal model and mRNA was measured using Q-PCR.

NLRP3 inflammasome = assay: IL-1β production of LPS-treated macrophages (NLRP3 inflammasome activity); assay type: cell-based, mouse; conditions: Raw cells; for inhibitory effect of IL-1β production: then LPS
From the text: It is well known that the treatment of macrophages with lipopolysaccharide (LPS) results in activation of inflammation-regulating complex (inflammasome), thereby increasing IL-1β production (Mariathasan et al., Nat. Rev. Immunol. 2007; 17186029). In order to determine the inhibitory effect of the activity of inflammation-regulating complex (NLRP3 inflammasome), which is a representative inflammation-regulating protein, the IL-1(3 production of candidate substances upon the treatment of macrophages with LPS was measured and evaluated.
The macrophages were treated with myriocin in different concentrations as a control group and were then treated with the same concentration of LPS for 24 hours. […] Based on this, experiments were conducted to determine the effect of sphingolipid candidates on the inhibition of IL-1β.

[8] = 10 times a normal dose; cited from earlier work
[9] = 1 mg/kg/day for six weeks with MCDD, liver tissue
[10] = 1 mg/kg/day for six weeks with MCDD, vs control group
[11] = liver tissue, MCDD 6 weeks model

CCCCCCCCc1ccc(CCC(N)(CO)CO)cc1 [FTY720, Fingolimod]
side effect in the blood [1]: lymphopenia in the blood

CCCCCCCCCCCCC/C=C/[C@@H](O)[C@@H](N)COP(=O)(O)O [S1P, sphingosine 1-phosphate, reference compound]
S1PR4 internalization (S1PR4-EGFP): internalized | S1PR4 recycling to the cell membrane (S1PR4-EGFP): recycled to the cell membrane

CCCCCCCCCCn1cc(CCC(N)(CO)CO)nn1 [SLB736, 2-amino-2-(2-(1-decyl-1H-1,2,3-triazol-4-yl)ethyl)propane-1,3-diol]
agonistic activity of S1P receptors (S1PR4 [2]): agonistic effect specific for S1PR4 | leukocytes in blood [3]: no reduction | lymphocytes in blood [3]: no reduction | expression level of S1PR4 (S1PR4 [4]): significantly reduce | amount of S1PR4 protein in liver tissue (S1PR4 [5]): decreased | degree of fibrosis (microscope) [6]: considerable reduction | degree of steatosis (microscope) [6]: considerable reduction | lobular inflammation (microscope) [6]: considerable reduction | degree of fibrosis (microscope) [7, 9]: significantly reduced | degree of steatosis (microscope) [7, 9]: significantly reduced | lobular inflammation (microscope) [7, 9]: significantly reduced | degree of fibrosis, NAS system of the CRN [7, 10]: significantly alleviated | degree of steatosis, NAS system of the CRN [7, 10]: significantly alleviated | lobular inflammation, NAS system of the CRN [7, 10]: significantly alleviated | expression of MCP-1 (mRNA, Q-PCR) [7, 11]: reduced to a significant level | expression of TGF-β (mRNA, Q-PCR) [7, 11]: reduced to a significant level | expression of TNF-α (mRNA, Q-PCR) [7, 11]: reduced to a significant level | inhibitory effect of IL-1β production (NLRP3 inflammasome; 0.1 μM): excellent | inhibitory effect of IL-1β production (NLRP3 inflammasome; 1.0 μM): excellent | S1PR4 internalization (S1PR4-EGFP): internalized | S1PR4 recycling to the cell membrane (S1PR4-EGFP): not recycled

CCCCCCC(=O)CCCCCC/C=C/C[C@@H](O)[C@H](O)[C@@](N)(CO)C(=O)O [myriocin, reference compound]
toxicity in animals [8]: death from severe digestive disorders | IL-1β production (NLRP3 inflammasome; 10 μM, then LPS 100 ng/ml for 24 hours): effectively reduced IL-1β production
